According to EP0652769B1, “VACCINES AGAINST METAZOAN PARASITES” (MALLINCKRODT VETERINARY, INC., priority 1992, dated 1994):
“And” between values parts separate entries of the source, which are not always exact repeats. Identical values can stand only once. Square brackets hold non-standard residues; d marks the D form. Peptide text beside a SMILES is read from it. * marks the point of attachment. Sta = CC(C)C[C@H](N)[C@@H](O)CC(=O)O; Isovaleryl = CC(C)CC(=O)*

How the values were obtained:
H-gal-GP [1] = assay: Azocasein proteolysis by H-gal-GP at pH 7 with a panel of proteinase inhibitors (neutral endopeptidase-like activity); format: biochemical, H.contortus; settings: inhibitor 1mM, overnight at 37°C
Procedure: Proteinase activity was determined using azocasein as substrate in a microassay system. H-gal-GP (approximately 5ug in 20µl) was preincubated for 3Omin at 37°C with 2OOµl sterile 0.1M phosphate buffer, pH 7.0 containing no inhibitor (control), or inhibitor to a final concentration of 1mM. Inhibitors used were prepared as 100mM stock solutions in water except for 4-hydroxymercuribenzoate (4HMB) and pepstatin which were dissolved in methanol. Inhibitors tested were dithiothreitol (DTT); L-cysteine; reduced glutathione; 4HMB; N-ethylmaleimide; EDTA; 1,10 phenanthroline and pepstatin and were all purchased from Sigma. After preincubation 20µl azocasein (5mg/ml in sterile distilled water; Sigma) was added and the reaction mixtures incubated overnight at 37°C. Parallel blanks containing sterile water instead of H-gal-GP were included for each inhibitor tested and assays were performed in duplicate. The reactions were stopped by addition of an equal volume of 1M perchloric acid (BDH chemicals) and retained on ice for 15min to precipitate undigested protein which was subsequently pelleted by brief centrifugation at 11000g using a microfuge. The 0D₄₀₅ of the supernatant was determined using a "Monarch" microcentrifugal analyser (Instrumentation Laboratory, Warrington, UK). After subtraction of the appropriate reagent blank the degree of inhibition was expressed as the percent activity remaining compared to the control reaction.

H-gal-GP [2] = assay: Inhibitor sensitivity of protease activity; format: biochemical, H. contortus; settings: peanut lectin purified H-gal-GP; means of 4 separate observations
Procedure: The optimum pH for this activity was determined over the pH range 4 to 9 using overlapping 0.1M acetate, phosphate or Tris buffers (Fig. 8). Optimal activity was found between pH 4.5 and 6.5. ii) Inhibitor sensitivity The inhibitor sensitivity of the proteinase activity was tested with 4 separate preparations of peanut lectin purified H-gal-GP. […]

Oc-gal-GP = assay: Inhibitor sensitivity of protease activity; format: biochemical, O.circumcincta; settings: means of 2 observations
Oo-gal-GP = assay: Inhibitor sensitivity of protease activity; format: biochemical, O.ostertagi; settings: means of 2 observations
[3] = tested on: extracts of adult T.vitrinus; assay: Proteolytic activity of worm extracts in the presence of pepstatin; format: biochemical
Source text: Proteolytic activity in extracts of adult T.vitrinus was reduced by 40% in the presence of pepstatin. […] These observations indicate that T.vitrinus also contains aspartyl proteinase activity similar to Haemonchus and Ostertagia spp.

[4] = target: Haemonchus galactose-containing glycoprotein complex (H-gal-GP) (Haemonchus contortus); assay: cell-based or functional assay
[5] = target: Ostertagia circumcincta galactose containing glycoprotein complex (Oc-gal-GP) (Ostertagia circumcincta); assay: cell-based or functional assay
[6] = target: Ostertagia ostertagi galactose-containing glycoprotein complex (Oo-gal-GP) (Ostertagia ostertagi); assay: cell-based or functional assay
[7] = first analysis, 0.1M phosphate buffer
[8] = second analysis, same batch of H-gal-GP

Row | Compound | % activity remaining (H-gal-GP [1]; [7]) [%] | % activity remaining (H-gal-GP [1]; [8]) [%] | percent activity remaining in the presence of inhibitor (H-gal-GP [2]) [%] | percent activity remaining in the presence of inhibitor (Oc-gal-GP) [%] | percent activity remaining in the presence of inhibitor (Oo-gal-GP) [%] | further results
1 | O[C@H](CS)[C@H](O)CS (racemic) [Dithiothreitol, dithiothreitol] | 48 | 44 |  |  |  | 
2 | c1cnc2c(c1)ccc1cccnc12 [1, 10 Phenanthroline, 1,10 phenanthroline] | 26 | 23 | 97 | 94 | 99 | 
3 | O=C([O-])c1cc[c]([Hg][OH])cc1 [4-hydroxymercuribenzoate] | 88 | 91 |  |  |  | 
4 | N[C@@H](CS)C(=O)O [Cysteine, L-cysteine] |  | 0 |  |  |  | 
5 | CC(C)C[C@H](NC(=O)[C@H]1O[C@@H]1C(=O)O)C(=O)NCCCCN=C(N)N [E64] |  |  | 87.8 | 101 | 101 | 
6 | O=C(O)CN(CCN(CC(=O)O)CC(=O)O)CC(=O)O [EDTA] | 25 | 10 | 97.8 |  |  | 
7 | N[C@@H](CCC(=O)N[C@@H](CS)C(=O)NCC(=O)O)C(=O)O [Glutathione, reduced glutathione] | 87 | 85 |  |  |  | 
8 | CCN1C(=O)C=CC1=O [N-ethylmaleimide] | 74 | 77 |  |  |  | 
9 | O=S(=O)(F)Cc1ccccc1 [PMSF] |  |  | 100 | 104 | 84 | 
10 | CC(C)CC(=O)N[C@H](C(=O)N[C@H](C(=O)N[C@@H](CC(C)C)[C@@H](O)CC(=O)N[C@@H](C)C(=O)N[C@@H](CC(C)C)[C@@H](O)CC(=O)O)C(C)C)C(C)C [Pepstatin, pepstatin] (Isovaleryl-VV[Sta]A[Sta]-OH) | 75 | 85 | 8.5 | 23 | 0 | Proteolytic activity reduced [3]: 40%
11 | Serum of control lamb (injected with adjuvant only) (antibody) |  |  |  |  |  | % Inhibition of Proteolysis (Assay 1) [4]: 0%; % Inhibition of Proteolysis (Assay 2) [4]: 2%
12 | pepstatin (peptide) |  |  |  |  |  | % activity remaining (azocasein proteolysis at pH7) [4]: 75% and 85%; percent activity remaining in the presence of inhibitor [4]: 8.5%; percent activity remaining in the presence of inhibitor [5]: 23%; percent activity remaining in the presence of inhibitor [6]: 0%
